Values of other authors in patent publication US20080085301A1, “Method for transdermal administration of antimicrobial medications” (priority 2005, published 2008).

system: Streptococcus pneumoniae; conditions: based on Streptococcus pneumoniae; in vitro

Approximate MIC [µg/mL]	SMILES
~0.5	CO[C@H]1/C=C/O[C@@]2(C)Oc3c(C)c(O)c4c(O)c(c(/C=N/N5CCN(C)CC5)c(O)c4c3C2=O)NC(=O)/C(C)=C\C=C\[C@H](C)[C@H](O)[C@@H](C)[C@@H](O)[C@@H](C)[C@H](OC(C)=O)[C@@H]1C [Rifampin]
~4	O=C(N[C@H](CO)[C@H](O)c1ccc([N+](=O)[O-])cc1)C(Cl)Cl [Chloramphenicol]
~2	CC(=O)NC[C@H]1CN(c2ccc(N3CCOCC3)c(F)c2)C(=O)O1 [Linezolid]
~1	C[C@@H](O)[C@H]1C(=O)N2C(C(=O)O)=C(S[C@@H]3CN[C@H](C(=O)N(C)C)C3)[C@H](C)[C@H]12 [Meropenem]

Further lines, the compound ahead of its results:

SMILES	Approximate MIC [µg/mL]
CCCCCCCCCC(=O)N[C@@H](Cc1c[nH]c2ccccc12)C(=O)N[C@H](CC(N)=O)C(=O)N[C@@H](CC(=O)O)C(=O)N[C@@H]1C(=O)NCC(=O)N[C@@H](CCCN)C(=O)N[C@@H](CC(=O)O)C(=O)N[C@H](C)C(=O)N[C@@H](CC(=O)O)C(=O)NCC(=O)N[C@H](CO)C(=O)N[C@@H]([C@H](C)CC(=O)O)C(=O)N[C@@H](CC(=O)c2ccccc2N)C(=O)O[C@@H]1C [Daptomycin]	~0.5
[H]/N=C(/N)N[C@H]1[C@H](O)[C@@H](O)[C@H](O[C@@H]2O[C@@H](C)[C@](O)(C=O)[C@H]2O[C@@H]2O[C@@H](CO)[C@H](O)[C@@H](O)[C@@H]2NC)[C@@H](N/C(N)=N\[H])[C@@H]1O [Streptomycin]	~2
CN[C@H](CC(C)C)C(=O)N[C@H]1C(=O)N[C@@H](CC(N)=O)C(=O)N[C@H]2C(=O)N[C@H]3C(=O)N[C@H](C(=O)N[C@H](C(=O)O)c4cc(O)cc(O)c4-c4cc3ccc4O)[C@H](O)c3ccc(c(Cl)c3)Oc3cc2cc(c3O[C@@H]2O[C@H](CO)[C@@H](O)[C@H](O)[C@H]2O[C@H]2C[C@](C)(N)[C@H](O)[C@H](C)O2)Oc2ccc(cc2Cl)[C@H]1O [Vancomycin]	~16
N[C@@H]1CON=C1O [Cycloserine]	~32
